From US12653803B2, “TREM2 agonists for the stimulation of microglia and methods of identification” (THE TRANSLATIONAL GENOMICS RESEARCH INSTITUTE, priority 2017, dated 2026) come the findings set out here.

Entries after “also recorded” stand apart in the source; their conditions may differ.

One experiment concerns the target T1, TREM2/TYROBP (Homo sapiens, UniProt Q9NZC2).
T1 construct: stably co-expressing full-length TREM2, full-length TYROBP, and a reporter (e.g., firefly luciferase) driven by NFAT-response elements; expressed in transfected cells; host or cells: BW5147.3 mouse T-lymphocyte cell line, lentiviral transduction (pTYF vectors)
The experiment in a line: TREM2/TYROBP/NFAT-Luc luciferase reporter cell line screen (primary screen). Type of experiment: cell-based. Conditions: for stimulation of reporter activity in the TREM2 screening cell line: TREM2/TYROBP/NFAT-Luc cells, positive controls: sphingomyelin at increasing concentrations or 120 μg/mL, PMA (1.5 ng/mL)/Ionomycin (375 nM). From the text: (§1) Cell-based reporter assays were developed for identifying TREM2 agonists. A mouse T-lymphocyte cell line, BW5147.3, stably co-expressing full-length TREM2, full-length TYROBP, and a reporter (e.g., firefly luciferase) driven by NFAT-response elements, was established (FIG. 2). The parental BW5147.3 cells have no detectable expression of TREM2 or TYROBP (FIG. 4B) and can be used as a counter screen cell-line to identify false positive compounds that stimulate reporter expression independent of TREM2 and TYROBP. BW5147.3 lymphocytes play a central role in the immune system and have high viability (99-100%) in culture.
TREM2 and TYROBP geneArt double-stranded cDNA strings were synthesized (Life Technologies, Carlsbad, CA) and subcloned into pTYF lentiviral vectors to generate a pLenti expression clone. HEK293HT cells were next transfected using Superfect (Qiagen, Venlo, Netherlands), and viral particles were collected and concentrated. Stable expression of TREM2, TYROBP, and the Cignal Lenti NFAT Reporter (Luc) (Qiagen, Venlo, Netherlands) in BW5147.3 cells was accomplished by transduction in opti-MEM media (Life Technologies, Carlsbad, CA) containing 6 μg/ml Polybrene (Sigma-Aldrich, St. Louis, MO). […]
TREM2/TYROBP-NFAT-Luc cell line for HTS was optimized by testing TREM2-stimulated Luc-reporting as a function of growth medium, agonist concentration, induction time, assay duration, and cell density. […] Firefly luciferase levels were measured by chemiluminescence (Bright-Glo™, Promega, WI). […] The effect of reported TREM2 agonists to be served as positive controls were measured (FIG. 5), and the specific stimulation of our reporter through TREM2 by known ligand sphingomyelin was confirmed (FIG. 5).
The primary screening assay was conducted with a concentration of 5 μM for each of the 2,400 compounds (final 0.05% or 0.1% DMSO (v/v)) with two replicate screens with internal replicates. […] Subsequently, Luciferase activity was measured using Bright-Glo™ (Promega, Madison, WI).

The next experiment has as its system NFAT reporter. The experiment in a line: BW-NFAT-Luc counter screen (NFAT reporter only, no TREM2/TYROBP). Type of experiment: cell-based, mouse. The note with it: for stimulation of the NFAT-Luc reporter-only counter screen cell line: NFAT-Luc cells without TREM2/TYROBP, sphingomyelin (120 μg/mL in counter screen).
Source text: as §1
A counter screen cell line only expressing the Cignal Lenti NFAT Reporter (luc) was also created in parallel to the reporter (BW-NFAT-Luc cell line). The BW-NFAT-Luc cell line has the same MOI as the TREM2/TYROBP-NFAT-Luc cell line (MOI=20) but without expression of TREM2 or TYROBP.
Transmembrane signaling via TREM2 is accomplished through an ITAM-bearing trans-membrane adaptor protein, TYROBP or DAP12. TREM2 activation leads to the induction of transcription factor NFAT. Activation of TREM2 by ligands leads to the phosphorylation of TYROBP, the activation of the reporter, and quantitative production of luciferase. Previous studies using TREM2/TYROBP/NFAT reporter cell-lines have confirmed the stimulation of NFAT transcription following TREM2 activation. Compounds that directly stimulate NFAT signaling (stimulate luciferase activity in the BW-NFAT-Luc cell line) are eliminated as false positive. Thus, the counter screen with BW-NFAT-Luc cell line eliminates the false positive hits and confirms hits from TREM2/TYROBP cell lines screened.
To eliminate the false positive hits from the primary screen that might directly stimulate NFAT signaling, a counter screen was performed with the initial 27 compounds using the BW-NFAT-Luc cell line alone. […] The primary screen with the TREM2/TYROBP Luciferase reporter cell line identified Tyrphostin AG 538 as a positive hit with a relative luminescence of 16.08 (FIG. 6A). […]

T1 sequence (Q9NZC2 19-230, species assumed): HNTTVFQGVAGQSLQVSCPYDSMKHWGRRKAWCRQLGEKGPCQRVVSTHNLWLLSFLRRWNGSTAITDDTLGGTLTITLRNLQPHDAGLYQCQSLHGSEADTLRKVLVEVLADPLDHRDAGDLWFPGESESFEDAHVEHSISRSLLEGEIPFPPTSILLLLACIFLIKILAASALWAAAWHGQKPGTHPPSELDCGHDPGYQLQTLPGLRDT
T1 sequence (O43914 22-113 partner, species assumed): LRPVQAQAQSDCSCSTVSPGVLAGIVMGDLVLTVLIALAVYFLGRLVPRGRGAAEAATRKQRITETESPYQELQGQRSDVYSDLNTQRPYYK

For the compound `N#C/C(=C\c1ccc(O)c(O)c1)C(=O)c1ccc(O)c(O)c1` [Tyrphostin AG 538], the relative luminescence at TREM2/TYROBP (primary screen, 5 μM, duplicates, 8 h treatment, TREM2/TYROBP/NFAT-Luc reporter cell line, relative to DMSO vehicle) was determined as 16.08. For the same compound, in the experiment with NFAT reporter (NFAT-Luc reporter cell line, 1.5, 3, 6 and 12.5 μM), the “direct stimulation of the NFAT reporter in the counter screen” value is recorded as “did not stimulate the NFAT reporter directly”.
On to Sphingomyelin, for which the “stimulation of reporter activity in the TREM2 screening cell line” value on TREM2/TYROBP is “stimulates; also recorded: similarly positive results”; on TREM2/TYROBP (listed as sphingomyelin) it was “induce reporter activity”. The entries for the “stimulation of the NFAT-Luc reporter-only counter screen cell line” value in the experiment on NFAT reporter and with NFAT reporter (listed as SM) were “did not show direct stimulation of the NFAT reporter” and “did not show any activity”, respectively.
